Patent US6383773B2, “Penicillin conversion” (Massachusetts Institute of Technology, priority 1998, dated 2002)

Legend:
[1] = system: S. clavuligerus or C. acremonium expandase enzymes; conditions: cited from earlier work; for ability to expand: in vitro (Bowers 1984; Baldwin 1987; Shibata 1996); for in vitro substrate: suggested by Baldwin et al. 1987, subsequent work failed to confirm
[2] = molecular target: T1, S. clavuligerus expandase (Streptomyces clavuligerus, UniProt P18548); experiment: Penicillin ring expansion by cell-free S. clavuligerus expandase extracts, paper disc-agar diffusion bioassay; format: biochemical; conditions: 4 mg/ml extract protein; for Ring expansion, size of zones of inhibition: 2 mg/ml substrate (penicillin mX and octanoyl-6-APA 3 mg/ml), 2 hours; for Inhibition Zone Diameter: 2 hours of reaction, 250 μl in bioassay (E. coli ESS, penicillinase)
T1 construct: endogenous in cells; host or cells: S. clavuligerus mutant NP1, crude cell-free extract
Method: Preparation of Cell-free Extracts: Fermentation broths were centrifuged at 8,000×g and 4° C. for 10 min. Pellets were washed twice using 50 mM Tris-HCI supplemented with 0.1 mM dithiothreitol (DTT). The cells were resuspended in the same buffer and disrupted by four 25-sec. sonication treatments (power setting 5 and duty cycle 50%), in an ice-water bath using a Branson 350 sonifier (Branson Sonic Power Co., Danbury, Conn.). Cell debris was removed by centrifugation (14,000×g, 30 min., 4° C.). The resulting extracts containing 8-10 mg protein/ml were placed on ice and utilized immediately. Protein concentrations were measured using the Bio-Rad protein assay (Bio-Rad, Hercules, Calif.). Bovine serum albumin was used as standard.
Ring Expansion Reaction: We defined ring expansion reaction conditions as modifications of the standard reaction mixture for expandase reactions described by Maeda et al. (Maeda et al., Enzyme Microb. Technol. 17:231-34, 1995) except that penicillin G was used a substrate instead of penicillin N. Additions were made following the order established by Shen et al. (Shen et al., Enzyme Microb. Technol. 6:402-404, 1984. Reaction mixtures were incubated in test tubes (cell-free extract) or 250 ml baffled flasks (resting cells) at 220 rpm, 30° C. Reactions containing the protein extract were stopped at various times (see Table 1 and Figure Legends) by mixing 0.5 ml of assay solution with 0.5 ml of methanol. In the case of resting cells, samples were centrifuged to remove cells and supernatants were transferred to new tubes. Expandase activity was detected by paper disc-agar diffusion bioassay.
Detection of Expandase Activity: As mentioned above, expandase activity was detected by assaying production of a growth-inhibitory zone in a paper disc-agar diffusion bioassay. Paper discs were saturated with 200 μl of the reaction mixture (cell-free extracts or supernatant (resting cells) as follows. Two discs were superimposed and four 50 μl samples were applied. After each application, the discs were allowed to dry for 20 min at 37° C. under a laminar hood and, finally, they were placed on LB (1% tryptone, 0.5% NaCl, 0.5% yeast extract, 0.1% glucose) 0.8% agar medium seeded with E. coli ESS (a β-lactam supersensitive mutant), and the plates were incubated overnight at 37° C. The formation of DAOG and/or other cephalosporin(s) was determined by including 50,000 IU/ml of penicillinase (Difco Bacto penase concentrate, Difco Laboratories, Detroit, Mich.) in the assay plates. This penicillinase is a narrow spectrum β-lactamase that attacks penicillins but not cephalosporins. The diameters of zones of growth inhibition were measured and quantified with a calibration curve using DAOG as standard.
Ring Expansion of Other Penicillins by Cell-free Extracts: We tested our reaction conditions for their ability to support ring expansion on other penicillin substrates and found detectable expansion with each of the 15 substrates that we tested. […] The reactions contained 4 mg/ml extract (protein concentration), 50 mM Tris-HCl pH 7.4, 1.8 mM FeSO4, 1.28 mM α-ketoglutarate, 8 mM MgSO4, 8 mM KCl, 4 mM ascorbic acid, 14 mM DTT, and 2 mg/ml substrate (except for penicillin mX and octanoyl-6-APA, which were used at 3 mg/ml). Samples were centrifuged at 12K rpm for 5 minutes after 2 hours of reaction. 250 μl of reaction mixture was used in each bioassay.

[3] = molecular target: T1, S. clavuligerus expandase; conditions: literature reports (Jensen 1982; Dotzlaf 1989; Yeh 1994; Maeda 1995); cited from earlier work
C. acremonium expandase = molecular target: T2, C. acremonium expandase (Hapsidospora chrysogena, UniProt P11935); conditions: cited from earlier work; for substrate for expandase activity: crude extracts (Kohsaka et al. 1976; Demain et al.); for ring expansion: partially purified enzyme (Kupka et al. 1983)
T2 sequence (P11935 1-332): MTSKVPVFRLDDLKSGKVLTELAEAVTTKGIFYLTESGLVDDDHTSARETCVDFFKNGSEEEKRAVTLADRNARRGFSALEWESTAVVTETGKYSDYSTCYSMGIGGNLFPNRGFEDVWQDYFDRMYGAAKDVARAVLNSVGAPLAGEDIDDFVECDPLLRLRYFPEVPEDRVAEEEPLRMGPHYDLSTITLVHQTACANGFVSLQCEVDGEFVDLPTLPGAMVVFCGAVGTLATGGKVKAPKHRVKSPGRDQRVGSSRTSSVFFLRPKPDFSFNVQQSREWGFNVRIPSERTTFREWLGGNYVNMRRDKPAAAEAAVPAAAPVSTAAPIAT

[4] = molecular target: T3, expandase from S. clavuligerus (Streptomyces clavuligerus, UniProt P18548); experiment: Ring expansion by cell-free extracts of S. lividans transformant pHJ11 (Example 7); format: biochemical; conditions: pHJ11 cell-free extract 6 mg/ml protein, substrate 5.6 mM, after 4 h of reaction
T3 construct: made in house; host or cells: S. lividans 1326 transformed with pHJ11, crude cell-free extract
Method: (§1) Microorganism, Medium and Culture Conditions: S. lividans 1326 was used in all experiments. Cultures were grown in 250 ml baffled flasks containing 40 ml of MST medium. Each flask was inoculated with 50 μl of a spore suspension (prepared and stored at −80° C. in 20% glycerol) and incubated at 30° C., 250 rpm, for 48 h.
(§2) Plasmids: The plasmid pUL702-202a was a gift from J. F. Martin (University of León, Spain). This vector harboured a 4.3 Kb BglII fragment containing the epimerase and expandase genes from Nocardia lactamdurans inserted at the BglII site on pIJ702. The plasmid pHJ11 was constructed by cloning a 3 Kb BglII fragment containing the expandase gene from S. clavuligerus 3585 into pIJ702 at the BglII site.
(§3) Ring Expansion Reaction: The ring expansion mixture contained 1.8 mM FeSO4, 1.28 mM α-ketoglutarate, 6 mg/ml protein (cell-free extract), 8 mM KCl, 8 mM MgSO4, 14 mM DTT and 50 mM TrisHCl (pH 7.4) in a final volume of 2.5 ml. Substrate concentration was 5.6 mM. Additions were made following the order established by Shen et al. (Enzyme Microb. Technol. 6:402-404, 1984). Reaction mixtures were incubated in test tubes at 220 rpm, 30° C. At different times, 0.5 ml samples were taken and the reaction was stopped by adding 0.5 ml of methanol. […] Biotransformation activity was detected by paper disc-agar diffusion bioassay. […]

[5] = molecular target: T4, expandase from N. lactamdurans (Amycolatopsis lactamdurans, UniProt Q03047); experiment: Ring expansion by cell-free extracts of S. lividans containing pUL702-202a (Example 7); format: biochemical; conditions: S. lividans pUL702-202a cell-free extract 6 mg/ml protein, substrate 5.6 mM
T4 construct: made in house; host or cells: S. lividans 1326 transformed with pUL702-202a, crude cell-free extract
Method: as §1, §2, §3

T1 sequence (P18548 whole entry, the tested form may be a part): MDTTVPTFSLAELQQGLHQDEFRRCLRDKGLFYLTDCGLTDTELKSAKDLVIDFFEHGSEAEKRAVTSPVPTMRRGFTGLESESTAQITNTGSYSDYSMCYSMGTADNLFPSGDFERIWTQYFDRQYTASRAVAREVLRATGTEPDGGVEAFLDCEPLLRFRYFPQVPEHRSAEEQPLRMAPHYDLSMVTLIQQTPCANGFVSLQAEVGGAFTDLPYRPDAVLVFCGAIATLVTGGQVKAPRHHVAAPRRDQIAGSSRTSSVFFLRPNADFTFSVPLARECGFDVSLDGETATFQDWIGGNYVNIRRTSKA
T3 sequence (P18548 whole entry): as the sequence (P18548 whole entry, the tested form may be a part) above
T4 sequence (Q03047 whole entry): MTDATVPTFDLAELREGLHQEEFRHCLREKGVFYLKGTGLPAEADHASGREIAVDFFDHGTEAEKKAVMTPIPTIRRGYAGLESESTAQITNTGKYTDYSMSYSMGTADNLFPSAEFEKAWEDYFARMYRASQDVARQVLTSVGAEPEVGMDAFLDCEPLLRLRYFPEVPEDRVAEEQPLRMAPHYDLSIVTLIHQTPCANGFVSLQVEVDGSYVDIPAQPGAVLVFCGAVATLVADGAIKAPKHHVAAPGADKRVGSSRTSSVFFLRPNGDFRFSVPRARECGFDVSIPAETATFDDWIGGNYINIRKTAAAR

Molecule	Ring expansion, size of zones of inhibition [2]	Inhibition Zone Diameter ([2]; 2 mg/ml substrate) [mm]	ring expansion [3]	other results
D-carboxymethylcysteinyl-6-APA				ability to expand [1]: some ability
CCCCCCCCCC(=O)NC1C(=O)N2C1SC(C)(C)C2C(=O)O (stereo not shown) [Decanoyl-6-APA, decanoyl-6-APA]	smaller zones	7		
CC/C=C/CC(=O)N[C@@H]1C(=O)N2[C@@H]1SC(C)(C)[C@@H]2C(=O)O [Penicillin F, penicillin F]	intermediate size zones	21		
CCCCCCCC(=O)N[C@@H]1C(=O)N2[C@@H]1SC(C)(C)[C@@H]2C(=O)O [Octanoyl-6-APA, octanoyl-6-APA]	intermediate size zones			Inhibition Zone Diameter ([2]; 3 mg/ml substrate): 16 mm
CC1(C)SC2C(NC(=O)Cc3cccs3)C(=O)N2C1C(=O)O (stereo not shown) [2-Thiophenylacetyl-6-APA, 2-thiophenylacetyl-6-APA]	Large zones of inhibition	32		
CCCCCCCC(=O)N[C@@H]1C(=O)N2[C@@H]1SC(C)(C)[C@@H]2C(=O)O [penicillin K]			not	
CC1(C)S[C@@H]2[C@H](N)C(=O)N2[C@H]1C(=O)O [6-aminopenicillanic acid]				substrate for expandase activity (C. acremonium expandase): not
CCCCCCC(=O)NC1C(=O)N2[C@@H]1SC(C)(C)[C@@H]2C(=O)O (stereo partly shown) [Heptanoyl-6-APA, heptanoyl-6-APA]	intermediate size zones	16.5		
CC1(C)S[C@@H]2[C@H](NC(=O)Cc3ccc(O)cc3)C(=O)N2[C@H]1C(=O)O [Penicillin X, penicillin X]	Large zones of inhibition	30.5		
CC1(C)S[C@@H]2[C@H](NC(=O)CCCCC(=O)O)C(=O)N2[C@H]1C(=O)O [Adipyl-6-APA, adipyl-6-APA]	intermediate size zones	20	not	ring expansion (C. acremonium expandase): does not expand; ability to expand [1]: some ability
CC1(C)S[C@@H]2[C@H](NC(=O)Cc3cccc(C(=O)O)c3)C(=O)N2[C@H]1C(=O)O [m-carboxyphenylacetyl-6-APA]			not	in vitro substrate [1]: at very low levels
CC1(C)S[C@@H]2[C@H](NC(=O)[C@H](N)c3ccccc3)C(=O)N2[C@H]1C(=O)O [Ampicillin, ampicillin]	intermediate size zones	17	not	production of cephalosporins [4]: about 1.5 μg/ml; ring expansion [5]: expansion was only observed when penicillin G was used as substrate; ring expansion (C. acremonium expandase): does not expand
CC1(C)S[C@@H]2[C@H](NC(=O)CCC[C@@H](N)C(=O)O)C(=O)N2[C@H]1C(=O)O [penicillin N]			expands the ring	substrate for expandase activity (C. acremonium expandase): substrates
CCCCCC(=O)NC1C(=O)N2[C@@H]1SC(C)(C)[C@@H]2C(=O)O (stereo partly shown) [Hexanoyl-6-APA, hexanoyl-6-APA]	intermediate size zones	19.5		
CCCCCCCCC(=O)NC1C(=O)N2C1SC(C)(C)C2C(=O)O (stereo not shown) [Nonanoyl-6-APA, nonanoyl-6-APA]	smaller zones	10.5		
D-glutamyl-6-APA			not	in vitro substrate [1]: at very low levels
CCCCCC(=O)N[C@@H]1C(=O)N2[C@@H]1SC(C)(C)[C@@H]2C(=O)O [penicillin dihydroF]			not	
glutamyl-6-APA				in vitro substrate [1]: at very low levels
CC1(C)S[C@@H]2[C@H](NC(=O)COc3ccccc3)C(=O)N2[C@H]1C(=O)O [Penicillin V, penicillin V]	smaller zones	7.5	not	
CCCCC(=O)NC1C(=O)N2[C@@H]1SC(C)(C)[C@@H]2C(=O)O (stereo partly shown) [Valeryl-6-APA, valeryl-6-APA]	intermediate size zones	15		
CCCC(=O)NC1C(=O)N2C1SC(C)(C)C2C(=O)O (stereo not shown) [Butyryl-6-APA, butyryl-6-APA]	intermediate size zones	17.5	not	
